System: JAS
Experiment: Microarray of JAS cDNA clones after spraying sugarcane plants with defense-inducing agents
Type: in vivo
Settings: treated v. untreated plant
Protocol: The 251 cDNA clones used for microarray analysis in Example 1 were further used to assess the effects of defense-inducing agents on the expression of the stem-specific genes.
Total RNA was extracted from wild type sugarcane plants (3 months-old) that were sprayed with the defense-inducing agents jasmonic acid (JA) (25·mu·M in 0.05.percent.Tween 20), methyl-jasmonate (MeJA) (200·mu·M in 0.1.percent.ethanol and 0.05.percent.Tween 20) or salicylic acid (SA) (5 mM in 0.05.percent.Tween 20) for two time periods, 24 and 48 hours. The microarray including 251 cDNAs was probed with fluorescently labeled cDNAs synthesized from 1·mu·g of total amplified RNA. One cDNA probe (e.g. RNA from plant treated with a defense-inducing agent) is labeled with one dye (Cy5), and the second (e.g. RNA from untreated control plant) with another dye (Cy3)
Microarray data was analyzed using GeneSpring analysis software. Data were normalized using an endogenous constitutive gene. The normalized ratio of Cy5 v.

Which results are given for `CC/C=C\C[C@H]1C(=O)CC[C@@H]1CC(=O)O` [JA, jasmonic acid]?
Cy5/Cy3 Ratios (Upregulation) for JAS (clone 2I1, JA 25 μM spray, 24 hours): 0.59; Cy5/Cy3 Ratios (Upregulation) for JAS (clone 2I1, JA 25 μM spray, 48 hours): 2.10; Cy5/Cy3 Ratios (Upregulation) for JAS (clone 4Q3, JA 25 μM spray, 24 hours): 0.41; Cy5/Cy3 Ratios (Upregulation) for JAS (clone 4Q3, JA 25 μM spray, 48 hours): 2.12; Cy5/Cy3 Ratios (Upregulation) for JAS (clone 5P22, JA 25 μM spray, 24 hours): 0.41; Cy5/Cy3 Ratios (Upregulation) for JAS (clone 5P22, JA 25 μM spray, 48 hours): 2.10; Cy5/Cy3 Ratios (Upregulation) for JAS (clone 6H10, JA 25 μM spray, 24 hours): 0.42; Cy5/Cy3 Ratios (Upregulation) for JAS (clone 6H10, JA 25 μM spray, 48 hours): 2.19; Cy5/Cy3 Ratios (Upregulation) for JAS (clone 10P7, JA 25 μM spray, 24 hours): 0.59; Cy5/Cy3 Ratios (Upregulation) for JAS (clone 10P7, JA 25 μM spray, 48 hours): 2.10; Cy5/Cy3 Ratios (Upregulation) for JAS (clone 12F18, JA 25 μM spray, 24 hours): 0.51; Cy5/Cy3 Ratios (Upregulation) for JAS (clone 12F18, JA 25 μM spray, 48 hours): 1.64; Cy5/Cy3 Ratios (Upregulation) for JAS (clone 13F16, JA 25 μM spray, 24 hours): 0.51; Cy5/Cy3 Ratios (Upregulation) for JAS (clone 13F16, JA 25 μM spray, 48 hours): 2.21; Cy5/Cy3 Ratios (Upregulation) for JAS (clone 17C11, JA 25 μM spray, 24 hours): 0.35; Cy5/Cy3 Ratios (Upregulation) for JAS (clone 17C11, JA 25 μM spray, 48 hours): 2.12; Cy5/Cy3 Ratios (Upregulation) for JAS (clone 18H16, JA 25 μM spray, 24 hours): 1.90; Cy5/Cy3 Ratios (Upregulation) for JAS (clone 18H16, JA 25 μM spray, 48 hours): 1.40; Cy5/Cy3 Ratios (Upregulation) for JAS (clone 20F18, JA 25 μM spray, 24 hours): 0.34; Cy5/Cy3 Ratios (Upregulation) for JAS (clone 20F18, JA 25 μM spray, 48 hours): 2.00; Cy5/Cy3 Ratios (Upregulation) for JAS (clone 20G16, JA 25 μM spray, 24 hours): 0.85; Cy5/Cy3 Ratios (Upregulation) for JAS (clone 20G16, JA 25 μM spray, 48 hours): 1.30; Cy5/Cy3 Ratios (Upregulation) for JAS (clone 24G4, JA 25 μM spray, 24 hours): 0.41; Cy5/Cy3 Ratios (Upregulation) for JAS (clone 24G4, JA 25 μM spray, 48 hours): 1.14; Cy5/Cy3 Ratios (Upregulation) for JAS (clone 25K14, JA 25 μM spray, 24 hours): 1.73; Cy5/Cy3 Ratios (Upregulation) for JAS (clone 25K14, JA 25 μM spray, 48 hours): 1.65

With `O=C(O)c1ccccc1O` [SA, salicylic acid] as the compound, how does the “Cy5/Cy3 Ratios (Upregulation) for JAS” value (clone 2I1, SA 5 mM spray, 48 hours) read?
The value was 16.92.

What about the “Cy5/Cy3 Ratios (Upregulation) for JAS” value (clone 4Q3, SA 5 mM spray, 48 hours) of the same compound?
Its value is 15.26.

And the “Cy5/Cy3 Ratios (Upregulation) for JAS” value (clone 5P22, SA 5 mM spray, 48 hours)?
The value was 18.08.

What about the “Cy5/Cy3 Ratios (Upregulation) for JAS” value (clone 6H10, SA 5 mM spray, 48 hours) of the same compound?
Its value is 19.22.

What about the “Cy5/Cy3 Ratios (Upregulation) for JAS” value (clone 10P7, SA 5 mM spray, 48 hours) of the same compound?
Its value is 20.96.

And the “Cy5/Cy3 Ratios (Upregulation) for JAS” value (clone 12F18, SA 5 mM spray, 48 hours)?
Its value is 17.54.

And the “Cy5/Cy3 Ratios (Upregulation) for JAS” value (clone 17C11, SA 5 mM spray, 48 hours)?
Its value is 18.83.

And the “Cy5/Cy3 Ratios (Upregulation) for JAS” value (clone 18H16, SA 5 mM spray, 48 hours)?
Its value is 0.70.

And the “Cy5/Cy3 Ratios (Upregulation) for JAS” value (clone 20F18, SA 5 mM spray, 48 hours)?
Its value is 19.54.

What about the “Cy5/Cy3 Ratios (Upregulation) for JAS” value (clone 20G16, SA 5 mM spray, 48 hours) of the same compound?
The value was 13.81.

What about the “Cy5/Cy3 Ratios (Upregulation) for JAS” value (clone 24G4, SA 5 mM spray, 48 hours) of the same compound?
The value was 7.73.

What about the “Cy5/Cy3 Ratios (Upregulation) for JAS” value (clone 25K14, SA 5 mM spray, 48 hours) of the same compound?
The value was 0.70.

With `CC/C=C\CC1C(=O)CCC1CC(=O)OC` (stereo not shown) [MeJA, methyl-jasmonate] as the compound, how does the “Cy5/Cy3 Ratios (Upregulation) for JAS” value (clone 2I1, MeJA 200 μM spray, 24 hours) read?
The value was 0.27.

And the “Cy5/Cy3 Ratios (Upregulation) for JAS” value (clone 2I1, MeJA 200 μM spray, 48 hours)?
The value was 0.22.

And the “Cy5/Cy3 Ratios (Upregulation) for JAS” value (clone 4Q3, MeJA 200 μM spray, 24 hours)?
The value was 0.15.

And the “Cy5/Cy3 Ratios (Upregulation) for JAS” value (clone 4Q3, MeJA 200 μM spray, 48 hours)?
Its value is 0.18.

And the “Cy5/Cy3 Ratios (Upregulation) for JAS” value (clone 5P22, MeJA 200 μM spray, 24 hours)?
Its value is 0.16.

And the “Cy5/Cy3 Ratios (Upregulation) for JAS” value (clone 5P22, MeJA 200 μM spray, 48 hours)?
Its value is 0.17.

And the “Cy5/Cy3 Ratios (Upregulation) for JAS” value (clone 6H10, MeJA 200 μM spray, 24 hours)?
The value was 0.15.

What about the “Cy5/Cy3 Ratios (Upregulation) for JAS” value (clone 6H10, MeJA 200 μM spray, 48 hours) of the same compound?
The value was 0.19.

And the “Cy5/Cy3 Ratios (Upregulation) for JAS” value (clone 10P7, MeJA 200 μM spray, 24 hours)?
Its value is 0.13.

And the “Cy5/Cy3 Ratios (Upregulation) for JAS” value (clone 10P7, MeJA 200 μM spray, 48 hours)?
Its value is 0.15.

And the “Cy5/Cy3 Ratios (Upregulation) for JAS” value (clone 12F18, MeJA 200 μM spray, 24 hours)?
The value was 0.20.

And the “Cy5/Cy3 Ratios (Upregulation) for JAS” value (clone 12F18, MeJA 200 μM spray, 48 hours)?
The value was 0.21.

And the “Cy5/Cy3 Ratios (Upregulation) for JAS” value (clone 13F16, MeJA 200 μM spray, 24 hours)?
Its value is 0.25.

What about the “Cy5/Cy3 Ratios (Upregulation) for JAS” value (clone 13F16, MeJA 200 μM spray, 48 hours) of the same compound?
The value was 0.34.

And the “Cy5/Cy3 Ratios (Upregulation) for JAS” value (clone 17C11, MeJA 200 μM spray, 24 hours)?
Its value is 0.17.

And the “Cy5/Cy3 Ratios (Upregulation) for JAS” value (clone 17C11, MeJA 200 μM spray, 48 hours)?
Its value is 0.17.

And the “Cy5/Cy3 Ratios (Upregulation) for JAS” value (clone 18H16, MeJA 200 μM spray, 24 hours)?
The value was 3.00.

What about the “Cy5/Cy3 Ratios (Upregulation) for JAS” value (clone 18H16, MeJA 200 μM spray, 48 hours) of the same compound?
Its value is 0.79.

And the “Cy5/Cy3 Ratios (Upregulation) for JAS” value (clone 20F18, MeJA 200 μM spray, 24 hours)?
The value was 0.16.

What about the “Cy5/Cy3 Ratios (Upregulation) for JAS” value (clone 20F18, MeJA 200 μM spray, 48 hours) of the same compound?
The value was 0.18.

And the “Cy5/Cy3 Ratios (Upregulation) for JAS” value (clone 20G16, MeJA 200 μM spray, 24 hours)?
Its value is 0.50.

And the “Cy5/Cy3 Ratios (Upregulation) for JAS” value (clone 20G16, MeJA 200 μM spray, 48 hours)?
The value was 0.49.

And the “Cy5/Cy3 Ratios (Upregulation) for JAS” value (clone 24G4, MeJA 200 μM spray, 24 hours)?
The value was 0.37.

What about the “Cy5/Cy3 Ratios (Upregulation) for JAS” value (clone 24G4, MeJA 200 μM spray, 48 hours) of the same compound?
The value was 0.41.

And the “Cy5/Cy3 Ratios (Upregulation) for JAS” value (clone 25K14, MeJA 200 μM spray, 24 hours)?
The value was 3.07.

What about the “Cy5/Cy3 Ratios (Upregulation) for JAS” value (clone 25K14, MeJA 200 μM spray, 48 hours) of the same compound?
Its value is 1.02.

Source: patent US7754946B2, “Stem-regulated, plant defense promoter and uses thereof in tissue-specific expression in monocots” (The Texas A&M University System, priority 2003, dated 2010)
